Earlier results on one compound are cited in patent US20050159439A1, “Management of postoperative pain” (priority 2001, published 2005).

In the data set the test system is subjects operated on for lumbar disc herniation. The conditions noted are these: 10 mg epidural morphine, lumbar disc herniation surgery.

`CN1CC[C@]23c4c5ccc(O)c4O[C@H]2[C@@H](O)C=C[C@H]3[C@H]1C5` [morphine]: the Pain relief entry is recorded as “significant pain relief” and the Side effect entry is recorded as “urinary retention was the relevant side effect”.
